Laboratory results taken from article PMC7529893, “Structural basis for substrate recognition and chemical inhibition of oncogenic MAGE ubiquitin ligases” (Nature Communications, 2020).

What follows are compounds tested against T1, MAGE-A11:PCF11 interaction (GST-MAGE-A11 and FAM-PCF11_4) (Homo sapiens, UniProt P43364) (assay: TR-FRET primary / single point screen at 15 µM). Settings: single point TR-FRET screening of 797 quinoline compounds against MAGE-A11:PCF11.
T1 construct: GST-MAGE-A11 MHD (human MAGE-A11 MHD amino acid 218-429); made in house; host or cells: E. coli BL21(DE3)
T1 sequence (P43364 218-429): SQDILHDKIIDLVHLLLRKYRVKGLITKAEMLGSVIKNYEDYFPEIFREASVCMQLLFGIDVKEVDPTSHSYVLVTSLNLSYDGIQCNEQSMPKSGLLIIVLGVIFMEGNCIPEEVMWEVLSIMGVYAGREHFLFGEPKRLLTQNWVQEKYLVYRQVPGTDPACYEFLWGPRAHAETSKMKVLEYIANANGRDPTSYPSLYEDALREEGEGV
Format: binding
Outline: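 TR-FRET 520/490 nm emission ratio was read after 90 min at room temperature. Wells held 5 nM GST-MAGE-A11, 5 nM Tb-anti-GST, 200 nM FAM-PCF11_4 and 15 µM compound in Tris pH 7.5 buffer with MgCl2, BSA and DTT. %Inhibition was scaled to DMSO and minus-MAGE-A11 controls.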

SMILES | percent inhibition (TR-FRET)
Fc1cccc(C(F)(F)F)c1CN(CCCCNc1ccnc2cc(Cl)ccc12)Cc1ccccc1 [SJ000520465] | 28.7514
COc1ccc(S(=O)(=O)c2cnc3cc(OC)c(OC)cc3c2N2CCN(C)CC2)cc1 [SJ000083955] | 0.8227
CN(C)CCNc1c2c(nc3ccccc13)CCC2 [SJ000013622] | 3.285
COc1ccc2ncc(S(=O)(=O)c3ccccc3)c(N3CCN(c4ccccc4)CC3)c2c1 [SJ000083974] | -132.977
CCCCCN(CCCCNc1ccnc2cc(Cl)ccc12)Cc1ccccc1 [SJ000361196] | 19.0968
Clc1ccc2c(NCCCCN(Cc3ccccc3)Cc3ccc[nH]3)ccnc2c1 [SJ000312692] | 28.2792
CCc1ccc2ncc(C(=O)c3ccccc3)c(N3CCN(CC)CC3)c2c1 [SJ000247281] | -2.261
O=C(CN1CCN(C(c2ccccc2)c2ccccc2)CC1)Nc1c2c(nc3ccccc13)CCC2 [SJ000111684] | 11.85
Cc1cc(N2CCN(CC(O)COCC(C)C)CC2)c2ccccc2n1 (stereo not drawn) [SJ000227654] | -3.251
CCN1CCN(c2c(S(=O)(=O)c3ccc(OC)cc3)cnc3cc(OC)c(OC)cc23)CC1 [SJ000083972] | 7.411
O=S(=O)(c1ccc(Cl)cc1)N1CCN(c2ccnc3cc(Cl)ccc23)CC1 [SJ000204656] | -34.3905
O=[N+]([O-])c1cccc(CN2CCC(Nc3ccnc4cc(Cl)ccc34)CC2)c1 [SJ000523095] | 0.8927
Oc1ccc(Br)cc1CN1CCC(Nc2ccnc3cc(Cl)ccc23)CC1 [SJ000311181] | -1.209
CCc1ccc(CNCCCNc2c3ccc(Cl)cc3nc3ccc(OC)cc23)cc1 [SJ000521005] | -390.355
Cc1cccc(CN(CCCCNc2ccnc3cc(Cl)ccc23)Cc2ccccc2)c1 [SJ000361206] | 29.5379
COc1ccc(F)cc1CN1CCC(Nc2ccnc3cc(Cl)ccc23)CC1 [SJ000357493] | 6.1527

SMILES | percent inhibition (TR-FRET)
COc1ccc(CN2CCC(Nc3ccnc4cc(Cl)ccc34)CC2)cc1 [SJ000523090] | 23.7178
CCc1ccc(S(=O)(=O)c2cnc3ccccc3c2N2CCN(c3ccccc3)CC2)cc1 [SJ000117053] | -21.2074
Cc1ccc(S(=O)(=O)N2CCN(c3ccnc4cc(Cl)ccc34)CC2)cc1 [SJ000192519] | -38.6966
Clc1ccc2c(NC3CCN(Cc4ccc(Cl)o4)CC3)ccnc2c1 [SJ000311180] | 0.6827
O=S(=O)(c1ccc(F)cc1)c1cnc2ccc(Cl)cc2c1N1CCN(c2ccc(F)cc2)CC1 [SJ000117063] | -4.205
CCOc1ccc2ncc(S(=O)(=O)c3ccc(Cl)cc3)c(N3CCN(CC)CC3)c2c1 [SJ000083969] | -4.989
CN1CCN(c2c(C(=O)c3ccccc3)cnc3ccc(Cl)cc23)CC1 [SJ000247338] | -5.573
COc1ccc2nc3cc(Cl)ccc3c(NCCCNCCCSC)c2c1 [SJ000523025] | -336.863
Clc1ccc2c(NCCCCN(Cc3ccccc3)Cc3cccs3)ccnc2c1 [SJ000312686] | 25.0481
Clc1ccc2c(NCCCCN(CCOCc3ccccc3)Cc3ccccc3)ccnc2c1 [SJ000357543] | -15.9162
COc1cccc(F)c1CN1CCC(Nc2ccnc3cc(Cl)ccc23)CC1 [SJ000357498] | 10.503
CCc1ccc(S(=O)(=O)c2cnc3ccccc3c2N2CCN(Cc3ccccc3)CC2)cc1 [SJ000117086] | -55.2584
CCCN(CCCCNc1ccnc2cc(Cl)ccc12)Cc1cc(Br)ccc1O [SJ000311196] | 5.724
CN(C)c1ccc(CN(CCCCNc2ccnc3cc(Cl)ccc23)Cc2ccccc2)cc1 [SJ000522727] | 21.522
CCOC(=O)c1ccc2ncc(C(=O)OCC)c(NCCN3CCOCC3)c2c1 [SJ000031347] | 0.6542

Same assay, conditions: single point TR-FRET screening of quinoline compounds against MAGE-A11:PCF11; 15 µM

SMILES | percent inhibition (TR-FRET)
CCCN(CCCNc1c2ccc(Cl)cc2nc2ccc(OC)cc12)Cc1cc(C(F)(F)F)ccc1OC [SJ000522985] | -46.0179
CCCN(CCCNc1ccnc2cc(C(F)(F)F)ccc12)Cc1cn(C)c2ccccc12 [SJ000520469] | 25.5382
CCCN(CCCNc1ccnc2cc(Cl)ccc12)Cc1ccc([N+](=O)[O-])s1 [SJ000522750] | 9.134
Clc1ccc2c(NCCCN(Cc3ccccc3)Cc3ccccn3)ccnc2c1 [SJ000312678] | -3.851
Clc1ccc2c(NCCCNCc3ccco3)ccnc2c1 [SJ000000502] | 6.349
CCCN(CCCNc1ccnc2cc(C(F)(F)F)ccc12)Cc1cccc(OC(F)(F)F)c1 [SJ000520473] | 9.085
CCCN(CCCNc1ccnc2cc(Cl)ccc12)Cc1c(C)cc(C)cc1C [SJ000522749] | 35.4339
Clc1ccc2c(NCCCN(Cc3ccccc3)Cc3ccco3)ccnc2c1 [SJ000312668] | 0.5217
Clc1cccc(-c2ccc(CNCCCNc3ccnc4cc(Cl)ccc34)o2)c1 [SJ000523069] | 33.5128
Clc1ccc2c(NCCCN(Cc3ccccc3)Cc3ccsc3)ccnc2c1 [SJ000312675] | 9.598
CCCN(CCCNc1c2ccc(Cl)cc2nc2ccc(OC)cc12)Cc1cccc2ccccc12 [SJ000520952] | -40.7667
CCCN(CCCNc1c2ccc(Cl)cc2nc2ccc(OC)cc12)Cc1ccc(N(C)C)cc1 [SJ000520955] | -10.0604
CCCN(CCCNc1ccnc2cc(C(F)(F)F)ccc12)Cc1cncc(Br)c1 [SJ000521007] | 4.323
c1coc(CNCCCNc2ccnc3cc(-c4ccc5c(c4)OCO5)ccc23)c1 [SJ000311290] | 30.7894
CCC(CC)c1ccc2c(NCCCNCc3ccco3)ccnc2c1 [SJ000311266] | 24.558
Clc1ccc2c(NCCCN(Cc3ccccc3)CC3CC3)ccnc2c1 [SJ000357483] | 21.0583
Cn1cccc1CNCCCNc1ccnc2cc(Cl)ccc12 [SJ000521019] | 18.9568
CCCN(CCCNc1ccnc2cc(C(F)(F)F)ccc12)Cc1ccccc1[N+](=O)[O-] [SJ000523071] | -7.745
CCOC(=O)c1cnc2c(C)c(Cl)ccc2c1NCCCN1CCOCC1 [SJ000129912] | -23.261
Fc1ccccc1CN(CCCNc1ccnc2cc(Cl)ccc12)Cc1ccccc1 [SJ000361175] | 0.9627
Cc1ccc(CNCCCNc2ccnc3cc(C(F)(F)F)ccc23)o1 [SJ000361109] | 14.4523

SMILES | percent inhibition (TR-FRET)
CCCN(CCCNc1ccnc2cc(C(F)(F)F)ccc12)Cc1ccccc1C(F)(F)F [SJ000361259] | 4.988
CCCN(CCCNc1ccnc2cc(C(F)(F)F)ccc12)Cc1ccoc1 [SJ000361267] | 28.5489
COc1ccc2nc3cc(Cl)ccc3c(NCCCNCc3ccc(Cl)c([N+](=O)[O-])c3)c2c1 [SJ000523036] | -95.379
CCOC(=O)c1cnc2c(C)cc(C)cc2c1NCCCN(C)C [SJ000037397] | 14.9289
FC(F)(F)c1ccc2c(NCCCNCc3nccs3)ccnc2c1 [SJ000521046] | 7.779
CCCCN(CCC)CCCNc1ccnc2cc(Cl)ccc12 [SJ000357571] | 12.7774
CCCN(CCCNc1ccnc2cc(Cl)ccc12)Cc1ccc([N+](=O)[O-])o1 [SJ000523047] | 9.575
CCCN(CCCNc1c2ccc(Cl)cc2nc2ccc(OC)cc12)Cc1ccc(C)o1 [SJ000520932] | 0.9854
CCCN(CCCNc1ccnc2cc(Cl)ccc12)Cc1sccc1C [SJ000357439] | 19.7269
CCCN(CCCNc1ccnc2cc(Cl)ccc12)Cc1cc2ccccc2o1 [SJ000522991] | 9.295
CCCN(CCCNc1c2ccc(Cl)cc2nc2ccc(OC)cc12)Cc1c(C)cc(C)cc1C [SJ000520934] | -46.315
N#Cc1ccc(Cc2ccc3c(NCCCNCc4ccco4)ccnc3c2)cc1 [SJ000311302] | 20.4271
Clc1ccc2c(NCCCN(Cc3ccccc3)CC3CCCCC3)ccnc2c1 [SJ000361171] | 28.213
CCCN(CCCNc1ccnc2cc(C(F)(F)F)ccc12)Cc1cccc2ccccc12 [SJ000523074] | 14.3161
COc1ccccc1CN(CCCNc1ccnc2cc(Cl)ccc12)Cc1ccccc1 [SJ000522722] | 4.43
CCCN(CCCCCC(=O)OC)CCCNc1ccnc2cc(Cl)ccc12 [SJ000523017] | 14.3011
FC(F)(F)c1ccc2c(NCCCNCc3nc4ccccc4s3)ccnc2c1 [SJ000521062] | 14.4336
Cc1cc(C)cc(Cc2ccc3c(NCCCNCc4ccco4)ccnc3c2)c1 [SJ000311318] | 39.3055
CCCN(CCCNc1ccnc2cc(C(F)(F)F)ccc12)Cc1cccc2c1OCO2 [SJ000520472] | 14.6158
c1ccc(Cc2ccc3c(NCCCNCc4ccco4)ccnc3c2)cc1 [SJ000311306] | 64.537
